Measured values published in US20120128706A1, “IMMUNE ADJUVANT COMPRISING ATP” (priority 2007, published 2012).

Columns and labels:
[1] = tested on: Balb/c mice; test: Production amount of antibody by ELISA after dermal administration of antigenic substance with immunoadjuvant (Test Example 1); assay type: in vivo
[2] = tested on: Balb/c mice; test: Measurement of IgG1/IgG2 ratio in blood samples as an index of Th2/Th1 balance (Test Example 2); assay type: in vivo; conditions: for IgG1/IgG2 ratio (given as average of the absorbance): mouse, in vivo
Protocol: The blood sample collected on the 25th day from the start of the test was provided, and the IgG1/IgG2 ratio was measured as an index of Th2/Th1 balance.
Further, a blood sample obtained by inoculating only the antigenic substance by intraperitoneal administration instead of the dermal administration at the same time as in the administration schedule in Test Example 1 was used as a control blood sample for comparison.
The IgG1/IgG2 ratio was measured with a Mouse Monoclonal Antibody Isotyping Reagents kit (SIGMA).
Specifically, a mouse serum was diluted with PBS by a factor of 1000 to give a solution. The solution (100 μL) was added to wells in a plate and was incubated at 37° C. for one hr. Next, each well was washed three times with PBS, and 100 μL of isotyping specific reagents (reagents containing IgA, IgG1, IgG2a, and IgG2b), which had been diluted by a factor of 1000, were added to the wells followed by incubation at room temperature for 30 min. Each well was washed three times with PBST. A peroxidase labelled mouse IgG (manufactured by SIGMA) (100 μL), which had been diluted with PBST by a factor of 5000, was added to the wells, and the wells were allowed to stand at room temperature for one hr. The wells were then washed three times with PBST. Thereafter, ABTS was added as a chromophoric substrate, and incubation was carried out for 5 to 10 min. For each well, the absorbance was measured with Multiscan Ascent (manufactured by Thermo Labsystems, wave length 405 nm).

| Compound | average±standard error of the absorbance (amount of antibody in mouse serum by ELISA) ([1]; serum sample on the 25th day from start of test, dermal administration by tape preparation, serum diluted 1000-fold, wavelength 405 nm, n=4) | Th2/Th1 balance (type of immunity induced) ([2]; from IgG1/IgG2 ratio, compared with antigenic substance only intraperitoneally or with cholera toxin) | IgG1/IgG2 ratio (given as average of the absorbance) [2] | average±standard error of the absorbance (amount of antibody in mouse serum by ELISA) ([1]; mouse, in vivo) |
| --- | --- | --- | --- | --- |
| Nc1ncnc2c1ncn2[C@@H]1O[C@H](COP(=O)(O)OP(=O)(O)OP(=O)(O)O)[C@@H](O)[C@H]1O [ATP, adenosine triphosphate] | 0.670±0.033 | Th2 cells are predominant | 2.28 |  |
| cholera toxin [reference compound] |  |  | 1.46 | 0.551±0.202 |
